Source: patent publication US20050238672A1, “Antifungal drug delivery” (priority 2004, published 2005)

Tests used:
[1] = tested on: T. rubrum, T. mentagrophytes; assay: clinical study, topical application, onychomycosis; assay type: in vivo, human; settings: after discontinuation of therapy
Description: A total of 10 patients, identified clinically and mycologically (T. rubrum, T. mentagrophytes) were all mycologically cured. Within two weeks of applications all patients with intractable, longstanding (of up to 15 years or more) moccasin distribution fungal dermatomycosis were clinically and mycologically cured. After 2 months of application all patients with severe onychomycosis, also of very long standing duration, appeared mycologically cured (negative cultures). […] Some nails continued to display dystrophic changes commensurate with the slow rate of nail growth and replacement. This persistent and possible prophylactic response is attributed to the unique solubility characteristics of the compounds in question and to the ability of the selected solvents to deliver the drug to the subungual or keratin rich regions where the fungi accumulate, and to persist at such sites in a microcrystalline form after precipitation.
Compositions according to the present invention can be applied by conventional methods, including the use of a small brush with a nail-lacquer bottle, a roll-on applicator, or by a squeeze bottle with a small opening. In the results cited above, a small brush with a nail-lacquer bottle was used.

[2] = solubility of terbinafine in benzyl alcohol; assay type: physicochemical; settings: room temperature, with stirring
Experimental: In a preferred embodiment, the antifungal agent, terbinafine (an allylamine compound) used to treat infections of the nails and of the sub and peri-plantar regions of the foot (moccasin distribution) is dissolved in benzyl alcohol at room temperature with the aid of stirring. […] Two grams of terbinafine are therefore dissolved in 5 ml of benzyl alcohol. To this solution 85 ml of ethyl alcohol anhydrous and 10ml of distilled water are added. The final concentration of the active compound terbinafine, is 2% and that of the preferred carrier, benzyl alcohol 5%.

solubility in benzyl alcohol [2]: greater than 40 % w/vol
Compound: CN(C/C=C/C#CC(C)(C)C)Cc1cccc2ccccc12 [terbinafine]
recurrence upon discontinuation of therapy [1]: lack of any recurrence
